Laboratory results taken from ChEMBL document CHEMBL2177101, “Role of the CAI-1 fatty acid tail in the Vibrio cholerae quorum sensing response” (J Med Chem, 2012).

Experiments:
Vibrio cholerae = test: Agonist activity at CqsS in Vibrio cholerae MM920 harboring deltacqsA, deltaluxQ and pBB1 at 50000 nM after 4 hrs by bioluminescence assay relative to CAI-1; assay type: functional
[1] = Agonist activity at CqsS in Vibrio cholerae MM920 harboring deltacqsA, deltaluxQ and pBB1 after 4 hrs by bioluminescence assay; assay type: functional

With `CCCCc1ccccc1COC(=O)C(O)CC` (racemic) the Emax (Vibrio cholerae) was 11% and the EC50 [1] was > 50000 nM.

Compound `CCCCCCOCCOC(=O)C(O)CC` (racemic) has an EC50 [1] of 2400 nM.

For `CCCC/C=C\CCOC(=O)C(O)CC` (racemic), the EC50 [1] was 780 nM.

With `CC/C=C/CCCCOC(=O)C(O)CC` (racemic) the EC50 [1] was 830 nM.

Work on `CCC(O)C(=O)OCCOCCOCCOC` (racemic) yielded an EC50 [1] of 10000 nM.

For `CCc1ccc(CCCOC(=O)C(O)CC)cc1` (racemic), the EC50 [1] was 190 nM.

For `CCOCCOCCOC(=O)C(O)CC` (racemic), the Emax (Vibrio cholerae) was 31% and the EC50 [1] was > 50000 nM.

For `CCCCCCCOC(=O)C(O)CC` (racemic), the EC50 [1] was 350 nM.

`CCCCCc1cccc(COC(=O)C(O)CC)c1` (racemic) showed an EC50 [1] of 1600 nM.

`CCCCC#CCCOC(=O)C(O)CC` (racemic) showed an EC50 [1] of 2000 nM.

`CCCCCCOC(=O)C(O)CC` (racemic) showed an EC50 [1] of 1000 nM.

Compound `CC/C=C\CCCCOC(=O)C(O)CC` (racemic) has an EC50 [1] of 570 nM.

Work on `CCC/C=C\CCCOC(=O)C(O)CC` (racemic) yielded an EC50 [1] of 1800 nM.

With `CCc1ccccc1CCCOC(=O)C(O)CC` (racemic) the Emax (Vibrio cholerae) was 28% and the EC50 [1] was > 50000 nM.

`CCCCCCCCCC(=O)[C@@H](N)CC` gave an EC50 [1] of 28 nM.

With `CCCCCCCCOC(=O)[C@@H](N)CC` the EC50 [1] was 30 nM.

With `CCc1cccc(CCCOC(=O)C(O)CC)c1` (racemic) the EC50 [1] was 9400 nM.

Work on `CCCCCCCCCOC(=O)C(O)CC` (racemic) yielded an EC50 [1] of 73 nM.

With `CCCCc1ccc(COC(=O)C(O)CC)cc1` (racemic) the EC50 [1] was 190 nM.

With `CCCCCC#CCOC(=O)C(O)CC` (racemic) the EC50 [1] was 550 nM.

With `CCCCCc1ccc(COC(=O)C(O)CC)cc1` (racemic) the EC50 [1] was 680 nM.

`CCCCCCCCCCOC(=O)C(O)CC` (racemic) showed an EC50 [1] of 720 nM.

`CCCCCCCCOC(=O)[C@H](N)CC` gave an EC50 [1] of 33 nM.

Work on `CCCCC[C@@H]1C[C@H]1COC(=O)C(O)CC` (mixture of isomers) yielded an EC50 [1] of 1200 nM.

With `CCCCOC(=O)C(O)CC` (racemic) the Emax (Vibrio cholerae) was 23% and the EC50 [1] was > 50000 nM.

Compound `CCCCC/C=C\COC(=O)C(O)CC` (racemic) has an EC50 [1] of 710 nM.

With `CCCCCOCCOC(=O)C(O)CC` (racemic) the EC50 [1] was 4400 nM.

Compound `CCC/C=C/CCCOC(=O)C(O)CC` (racemic) has an EC50 [1] of 270 nM.

With `CCCCC/C=C/COC(=O)C(O)CC` (racemic) the EC50 [1] was 54 nM.

For `CCCCc1ccc(COC(=O)[C@@H](O)CC)cc1`, the EC50 [1] was 117 nM.

`CCCC/C=C/CCOC(=O)C(O)CC` (racemic) gave an EC50 [1] of 770 nM.

In the case of `CCCCC/C=C/COC(=O)[C@@H](O)CC`, the EC50 [1] is reported as 39 nM.

With `CCCCc1cccc(COC(=O)C(O)CC)c1` (racemic) the EC50 [1] was 3700 nM.

For `CCCCCCCCNC(=O)[C@@H](O)CC`, the EC50 [1] was 1500 nM.
